Laboratory results published in patent US11919871B1, “3-(3-chlorophenyl)-5-((2-isopropyl-5- methylphenoxy)methyl)-1,2,4-oxadiazole as an anti-cancer and antimicrobial compound” (KING FAISAL UNIVERSITY, priority 2023, dated 2024).

Key:
Aspergillus flavus = test: Agar plate disc-diffusion, antifungal inhibition zone; format: cell-based; details: 72 h for fungi
Description: (§1) The agar plate disc-diffusion method was applied. […] The discs were then placed onto the surface of agar plates (nutrient agar for bacteria and Sabouraud's dextrose agar for fungi) seeded with the test organism. Each plate contained 15 mL of the agar medium, previously seeded with 0.2 mL of the broth culture of each organism pregrown for 18 hours. The plates were incubated at 37° C. for 48 h, and 72 h for fungi. The inhibition zones were measured in mm. Discs impregnated with DMSO were used as a control, and its inhibition zone was subtracted from the tested compound actual inhibition zone.

[1] = system: Chrysosporium keratinophilum; test: Agar plate disc-diffusion, antifungal inhibition zone; format: cell-based; details: 72 h for fungi
Description: (§2) The agar plate disc-diffusion method was applied. Sterilized filter papers (6 mm in diameter) were wetted with 10 μL of a solution of 3-(3-chlorophenyl)-5-((2-isopropyl-5-methylphenoxy)methyl)-1,2,4-oxadiazole (3) to be tested, containing 10 mg/mL in DMSO, and the discs were allowed to air dry. The discs were then placed onto the surface of agar plates (nutrient agar for bacteria and Sabouraud's dextrose agar for fungi) seeded with the test organism. Each plate contained 15 mL of the agar medium, previously seeded with 0.2 mL of the broth culture of each organism pregrown for 18 hours. The plates were incubated at 37° C. for 48 h, and 72 h for fungi. The inhibition zones were measured in mm. Discs impregnated with DMSO were used as a control, and its inhibition zone was subtracted from the tested compound actual inhibition zone.

Staphylococcus aureus = test: Agar plate disc-diffusion, antibacterial inhibition zone; format: cell-based; details: 37° C., 48 h
Description: as §1

Pseudomonas aeruginosa = test: as above; format: cell-based; details: 37° C., 48 h
Description: as §1

Escherichia coli = test: as above; format: cell-based; details: 37° C., 48 h
Description: as §1

Bacillus cereus = test: as above; format: cell-based; details: 37° C., 48 h
Description: as §1

different microbes = test: Antimicrobial activity, overall statement (agar plate disc-diffusion); format: cell-based; details: against different microbes (bacteria and fungi of Tables 1 and 2)
Description: as §2

[2] = system: human prostate cancer cells (PC3); test: Cytotoxicity by SRB assay; format: cell-based; details: 0.01 μM to 100 μM for 72 h
Text: (§3) The anticancer activity of the described synthesized compounds against highly aggressive androgen-independent metastatic human prostate cancer cells (PC3) and osteosarcoma (MG-63) cells. The human prostate cancer cells (PC3) and human osteosarcoma cells (MG-63) were obtained from Nawah Scientific Inc. (Mokatam, Cairo, Egypt) and cultured in DMEM (Dulbecco's modified eagle's medium), Gibco, USA, supplemented with fetal bovine serum (FBS) at a concentration of 10% and 100 U/mL of penicillin and streptomycin (PS). The Cells were incubated at 37° C. in a humidified environment that contained 5% CO2.
(§4) Cells were seeded in 96-well plates as aliquots of 100 μL cell suspension and incubated in a complete media for 24 h. afterward, cells were treated with 3-(3-chlorophenyl)-5-((2-isopropyl-5-methylphenoxy)methyl)-1,2,4-oxadiazole at diverse concentrations ranging from 0.01 μM to 100 μM for 72 h. Then, cells were fixed at 4° C. for one hour with 150 μL of 10% trichloroacetic acid (TCA). […] Then, 150 μL of Tris pH 10.5 (10 mM) was added, and the absorbance was measured at 540 nm using a BMG LABTECH®-FLUOstar Omega microplate reader (Ortenberg, Germany). Half maximal inhibitory concentrations (IC50) values were calculated for each experiment using GraphPad Prism 6 software. […]
(§5) The inhibition was calculated using the following equation: Inhibition %=100−Average Viability

[3] = system: human osteosarcoma cells (MG-63); test: Cytotoxicity by SRB assay; format: cell-based; details: MG-63 cells, 0.01 μM to 100 μM for 72 h
Text: as §3, §4, §5

[4] = A = concentration of comp. = 10,000 μL
[5] = B = concentration of comp. = 30,000 μL
[6] = C = concentration of comp. = 50,000 μL

SMILES	inhibition zone (Aspergillus flavus; [4])	inhibition zone (Aspergillus flavus; [5])	inhibition zone (Aspergillus flavus; [6])	inhibition zone [1, 4]	inhibition zone [1, 5]	inhibition zone [1, 6]	inhibition zone (Staphylococcus aureus; [4])	inhibition zone (Staphylococcus aureus; [5])	inhibition zone (Staphylococcus aureus; [6])	inhibition zone (Pseudomonas aeruginosa; [4])	inhibition zone (Pseudomonas aeruginosa; [5])	inhibition zone (Pseudomonas aeruginosa; [6])	inhibition zone (Escherichia coli; [4])	inhibition zone (Escherichia coli; [5])	inhibition zone (Escherichia coli; [6])	inhibition zone (Bacillus cereus; [4])	inhibition zone (Bacillus cereus; [5])	inhibition zone (Bacillus cereus; [6])	also measured
Cc1ccc(C(C)C)c(OCc2nc(-c3cccc(Cl)c3)no2)c1 [Compound 3, 3-(3-chlorophenyl)-5-((2-isopropyl-5-methylphenoxy)methyl)-1,2,4-oxadiazole]	18 mm	20 mm	29 mm	27 mm	29 mm	48 mm	13 mm	17 mm	20 mm	24 mm	28 mm	38 mm	24 mm	35 mm	50 mm	30 mm	31 mm	39 mm	melting point: 151 to 153 °C; antimicrobial activities (different microbes): excellent antimicrobial activities
O=C(O)c1cn(C2CC2)c2cc(N3CCNCC3)c(F)cc2c1=O [Cip., ciprofloxacin, reference compound]	29 mm	30 mm	42 mm	29 mm	30 mm	53 mm	43 mm	44 mm	53 mm	29 mm	30 mm	53 mm	30 mm	39 mm	60 mm	29 mm	30 mm	42 mm	–
Cc1ccc(C(C)C)c(OCc2nc(-c3cccc(Cl)c3)no2)c1 [3-(3-chlorophenyl)-5-((2-isopropyl-5-methylphenoxy)methyl)-1,2,4-oxadiazole]	–	–	–	–	–	–	–	–	–	–	–	–	–	–	–	–	–	–	antiproliferative activities [2]: excellent antiproliferative activities; antiproliferative activities [3]: excellent antiproliferative activities
